Data: paper PMC10987501, “The antihyperglycemic potential of pyrazolobenzothiazine 1, 1-dioxide novel derivative in mice using integrated molecular pharmacological approach” (Scientific Reports, 2024)
Entries after “also recorded” stand apart in the source; their conditions may differ.

Columns and labels:
α-glucosidase [1] = assay: α-glucosidase inhibition assay (PNPG substrate); assay type: biochemical; settings: for α-glucosidase % inhibition: 10 μL (500 µM) sample
Protocol: To carry out this reaction, 10 μL (500 µM) of 10 mM sample solution (prepared in DMSO) was added to ELISA 96 microwell plate. Then, 40 μL of 0.5U/ml α glucosidase was mixed by adding 120 μL of 0.1M phosphate buffer with a pH value of 7.4. The solution was incubated at 37 °C for 5 min. The reaction proceeded further by adding 40 μL of 5 mM substrate solution (PNPG) and incubation was done for half an hour at 37 °C. After performing the incubation microplate reader was used to read the absorbance of the reaction mixture at 405 nm wavelength. […] The inhibition percentage of the sample and positive control were calculated using the following formula. Inhibition%=B-S/B∗100
(§1) At this point, the B and S denote absorbance for the blank and samples. Blank contains only DMSO instead of sample.

α-amylase [2] = assay: α-amylase inhibition assay (starch substrate, DNSA); assay type: biochemical
Protocol: ELISA plate was used for inhibition assay and it was loaded with 40 µL of the sample. Enzyme prepared in 0.02 M sodium phosphate buffer with pH 6.9 (40 µL) was further added to wells. The solution in wells was kept on incubation at 37 °C for 10 min. Moreover, 40 µL starch solution prepared in 1% DMSO was added to the solution and put on incubation for 10 min at 25 °C. At last, to stop the reaction, 100 µL of DNSA reagent was added to the solution. The mixture was put in a boiling water bath for 5 min and cooled down at room temperature after incubation. For dilution of the reaction mixture, 400 µL of distilled water was added to the solution, and the absorbance of the reaction mixture was measured at 540 nm wavelength. To calculate the percentage inhibition the following formula was used. Inhibition%=B-S/B∗100
as §1

BALB/c mice [3] = assay: Biochemical investigation of blood in alloxan-induced diabetic mice; assay type: in vivo; design: Serum insulin level: unit not given here; settings: for Serum creatinine / Cholesterol in blood / HbA1c, % of glycated haemoglobin: treated group; for Serum creatinine: diabetic control 1.9 mg/dL; for Cholesterol in blood: diabetic control 120 mg/dL; for HbA1c, % of glycated haemoglobin: diabetic control 9%; for Serum insulin level: normal mice about 15 µM/L
Protocol: (§2) All experimental protocols adhered to the guidelines outlined in the NIH Guide for Care and Use of Laboratory Animals and the ARRIVE guidelines for animal experimentation. The Animal Care and Use Committee (ACUC) of Government College University Faisalabad (GCUF-2021-09) provided approval for the study. For in vivo study, BALB/c mice (weight 26–33 g) were acquired from the Department of Pharmacy and kept in the optimized environment (12 h dark, 12 h light) with a regular pellet diet and normal tab water. Diabetes induction in mice was done through a standard protocol reported by[21] with slight amendments. Alloxan monohydrate 150 mg/kg (following the body weight of mice) was liquified in normal saline and injected intraperitoneally in mice fasted for 16 h[22],[23]. Furthermore, screening of mice was done based on their blood glucose levels and mice with blood glucose levels more than 1.26 g/L were considered diabetic, and therefore taken for further experiment/examination. The mice diagnosed with diabetes were classified into five groups and five mice in each group. […] Two doses were selected because they indicate how the organism's response changes at different levels of exposure. This information is crucial for determining safe dosage levels for humans or animals.
For biochemical testing and histological examination, mice from each group were collected, and data were produced for different testing parameters, including fasting blood glucose, serum creatinine, serum insulin, HbA1c, triglyceride and cholesterol. A Countour TS glucometer was used to measure mice's fasting blood glucose levels. While Clinical Chemistry Reagents SRL (CCR) kit was used to measure serum creatinine and triglyceride levels. Moreover, the VITRO SCIENT kit was utilized to measure the serum insulin, cholesterol and HbA1c levels. For histological analysis, mice were sacrificed and their organs (liver, kidney and pancreas) were washed with cold saline and preserved in a 10% formalin solution. A compound microscope from the Department of Physiology, Government College University Faisalabad, was used for tissue investigation under a controlled and organized environment. Pictures of tissue samples were taken through OPTIKA software.

α-glucosidase [4] = assay: Kinetics study (α-glucosidase), Lineweaver–Burk plot; assay type: biochemical
Protocol: (p-nitrophenyl-α-D-glucoside) was used for reaction. In addition, varying concentrations (0.1 mM, 0.25 mM, 0.5 mM, 0.75 mM, 1 mM) sample/inhibitor [V] was used. The type of inhibition was determined by the Lineweaver–Burk plot, while the Michaelis Menten equation was used to find the value of the inhibition constant. Vo=VmaxS/Km+S 1/Vo=Km+S/VmaxS=km/Vmax1/S+1/Vmax
(§3) The initial rate of reaction is indicated by V0, Michaelis Menten's constant signifies km, Km/Vmax represents to slope, and 1/Vmax denotes the y-intercept. The value of the inhibitory constant was calculated by plotting the secondary graph. Straight-line produced by slope versus [V] intersecting x-axis indicates ki value while ki′ was produced by intersecting line plotted between y-intercept and [V].

α-amylase [5] = assay: Kinetics study (α-amylase), Lineweaver–Burk plot; assay type: biochemical
Protocol: Varying concentrations (0.25%, 0.5%, 1%, 1.5%, 2%) of substrate [S] (starch) were used with constant enzyme concentration. Same as substrate, varying concentration (1 mM, 3 mM, 5 mM, 7 mM, 9 mM) of the inhibitor [V] was used. Lineweaver–Burk plots were used to determine the type of enzyme inhibition and the Michaelis Menten equation was used to find the value of inhibition constant. Vo=VmaxS/Km+S 1/Vo=Km+S/VmaxS=km/Vmax1/S+1/Vmax
as §3, with “initial reaction” for “initial”, “rate” for “rate of reaction”, “represents” for “represents to”

BALB/c mice [6] = assay: Histology of liver, kidney and pancreas and side effects in alloxan-induced diabetic mice; assay type: in vivo
Protocol: as §2, with “animals. […]” for “animals.”

`C[C@H]1O[C@H](O[C@H]2[C@H](O)[C@@H](O)[C@@H](O[C@H]3[C@H](O)[C@@H](O)C(O)O[C@@H]3CO)O[C@@H]2CO)[C@H](O)[C@@H](O)[C@@H]1N[C@H]1C=C(CO)[C@@H](O)[C@H](O)[C@H]1O` (some centres unmarked) [Acarbose, reference compound] was tested, and the α-glucosidase % inhibition (α-glucosidase [1]) was 37 ± 0.026%, the α-amylase % inhibition (α-amylase [2]) was 33 ± 0.042% and the Serum creatinine (BALB/c mice [3]) was 0.8 mg/dL. The Cholesterol in blood (BALB/c mice [3]) was 100 mg/dL, the “HbA1c, % of glycated haemoglobin” value (BALB/c mice [3]) was 5% and the “Type of inhibition, α-glucosidase” value (α-glucosidase [4]) was “competitive inhibition”.
`C/C(=N\NC(=O)C1=C(O)c2ccccc2S(=O)(=O)N1)c1ccccc1` [Compound S1, (E)-4-Hydroxy-N′-(1-phenylethylamine)-2H-benzo[e][1,2]thiazine-3-carbohydrazide1,1-dioxide] was tested, and the “Type of inhibition, α-amylase” value (α-amylase [5]) was “competitive type of inhibition; also recorded: competitively”, the IC50 (α-glucosidase [1]) was 3.91 µM and the α-glucosidase % inhibition (α-glucosidase [1]; 500 µM) was 55 ± 0.047%. The IC50 (α-amylase [2]) was 8.89 µM, the α-amylase % inhibition (α-amylase [2]) was 46 ± 0.091% and the “Side effects in the mice model” value (BALB/c mice [6]; after administration to mice) was “no significant side effect”. For the same molecule, the “Histology: necrosis / toxicity in liver, kidney and pancreas” value (BALB/c mice [6]; diabetic mice dissected after 21 days of treatment) was “low necrosis rate; also recorded: less toxic in the kidney, liver, and pancreas; also recorded: no toxicity within the liver and pancreatic tissues; also recorded: minimum rate of necrosis and toxicity”, the Serum insulin level (BALB/c mice [3]; double dose (7.8 mg/kg)) was 30 and the “Fasting blood sugar level” value (BALB/c mice [3]; single and double doses (3.9 and 7.8 mg/kg), diabetic control > 300 mg/dL) was 110 mg/dL. For the same molecule, the Serum insulin level (BALB/c mice [3]; single dose (3.9 mg/kg)) was 25, the Serum creatinine (BALB/c mice [3]) was 0.6 mg/dL and the Cholesterol in blood (BALB/c mice [3]) was 85 mg/dL. The “HbA1c, % of glycated haemoglobin” value (BALB/c mice [3]) was 3% and the “Type of inhibition, α-glucosidase” value (α-glucosidase [4]) was “competitive type of inhibition; also recorded: competitively”.
